Measurements as given in the supplement of paper PMC10307832.

Experiments:
Assay in all cases: relative viability (nuclei count vs DMSO), 5 days (fraction); higher = more cells survive
Ricolinostat + Dasatinib = compound: O=C(CCCCCCNC(=O)c1cnc(N(c2ccccc2)c2ccccc2)nc1)NO [Ricolinostat] + Cc1nc(Nc2ncc(C(=O)Nc3c(C)cccc3Cl)s2)cc(N2CCN(CCO)CC2)n1 [Dasatinib] (partner 0.075 µM)
In short: (§1)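 Medians of duplicate plates are given as relative viability. That measure is the nuclei count in treated wells divided by the count in vehicle wells. Counts were taken on 4× images of lung cancer cell lines in 1536-well plates, 5 days after pin-tool dosing the day after seeding with one drug alone or a fixed anchor-drug dose plus five library-drug doses (not always all listed) in √10 steps.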

TGX 221 + Crizotinib = compound: CC1=CN2C(=O)C=C(N=C2C(=C1)C(C)NC3=CC=CC=C3)N4CCOCC4 [TGX 221] + C[C@@H](Oc1cc(-c2cnn(C3CCNCC3)c2)cnc1N)c1c(Cl)ccc(F)c1Cl [Crizotinib] (partner 1 µM)
In short: as §1

TGX 221 + Lapatinib = compound: CC1=CN2C(=O)C=C(N=C2C(=C1)C(C)NC3=CC=CC=C3)N4CCOCC4 [TGX 221] + CS(=O)(=O)CCNCc1ccc(-c2ccc3ncnc(Nc4ccc(OCc5cccc(F)c5)c(Cl)c4)c3c2)o1 [Lapatinib] (partner 2 µM)
In short: as §1

Row | Cell Line | relative viability (Ricolinostat + Dasatinib; first compound 0.08 µM) | relative viability (Ricolinostat + Dasatinib; first compound 0.253 µM) | relative viability (Ricolinostat + Dasatinib; first compound 0.8 µM) | relative viability (Ricolinostat + Dasatinib; first compound 2.53 µM) | relative viability (TGX 221 + Crizotinib; first compound 0.253 µM) | relative viability (TGX 221 + Crizotinib; first compound 0.8 µM) | relative viability (TGX 221 + Crizotinib; first compound 2.53 µM) | relative viability (TGX 221 + Crizotinib; first compound 8 µM) | relative viability (TGX 221 + Lapatinib; first compound 0.08 µM) | relative viability (TGX 221 + Lapatinib; first compound 0.253 µM) | relative viability (TGX 221 + Lapatinib; first compound 0.8 µM) | relative viability (TGX 221 + Lapatinib; first compound 2.53 µM) | relative viability (TGX 221 + Lapatinib; first compound 8 µM) | relative viability (TGX 221 + Crizotinib; first compound 0.08 µM)
1 | NCI-H1651 | 0.414 | 0.544 | 0.428 | 0.4 | 0.834 | 0.865 | 0.839 | 0.753 | 0.777 | 0.644 | 0.758 | 0.804 | 0.599 | 
2 | NCI-H1666 | 0.804 | 0.875 | 0.827 | 0.622 | 0.933 | 0.988 | 0.935 | 0.957 | 0.648 | 0.654 | 0.695 | 0.618 | 0.683 | 1
3 | NCI-H1734 | 0.463 | 0.516 | 0.51 | 0.571 | 0.643 | 0.643 | 0.588 | 0.537 | 0.907 | 1.05 | 1.1 | 1.06 | 0.927 | 0.652
4 | NCI-H1755 | 0.368 | 0.386 | 0.472 | 0.449 | 0.863 | 0.827 | 0.752 | 0.607 | 1.06 | 1.02 | 1.01 | 0.974 | 0.943 | 0.873
5 | NCI-H1915 | 0.277 | 0.29 | 0.275 | 0.231 | 0.83 | 0.942 | 0.9 | 0.813 | 0.88 | 0.978 | 0.999 | 0.963 | 0.985 | 0.864
6 | NCI-H1944 | 0.189 | 0.212 | 0.194 | 0.201 | 1.03 | 1.02 | 1.09 | 0.863 | 0.705 | 0.784 | 0.777 | 0.836 | 0.714 | 1.07
7 | NCI-H1975 | 0.402 | 0.354 | 0.307 | 0.381 | 0.878 | 0.996 | 0.935 | 0.803 | 0.92 | 0.855 | 0.861 | 0.796 | 0.791 | 0.985
8 | NCI-H1993 |  | 0.558 | 0.61 | 0.671 | 0.815 | 0.951 | 0.807 | 0.774 | 0.786 | 0.697 | 0.766 | 0.689 | 0.915 | 0.778
9 | NCI-H2009 | 0.231 | 0.295 | 0.347 | 0.365 | 0.978 | 1 | 1.03 | 0.773 | 0.961 | 0.927 | 0.894 | 0.882 | 0.772 | 0.964
10 | NCI-H2023 |  | 0.569 | 0.535 | 0.472 | 0.532 | 0.689 | 0.591 | 0.463 | 0.79 | 0.718 | 0.73 | 0.689 | 0.769 | 0.594
11 | NCI-H2085 | 0.205 | 0.256 | 0.18 | 0.217 | 0.878 | 0.915 | 0.806 | 0.505 | 0.666 | 0.644 | 0.681 | 0.469 | 0.462 | 0.804
12 | NCI-H2087 |  | 0.903 | 0.663 | 0.889 | 1.01 | 0.802 | 0.979 | 1.19 | 1.09 | 0.912 | 1.13 | 0.985 | 1.11 | 1.02
13 | NCI-H2126 |  | 0.618 | 0.616 | 0.492 | 1.04 | 0.963 | 0.975 | 0.966 | 0.61 | 0.752 | 0.667 | 0.616 | 0.717 | 0.992
14 | NCI-H2170 | 0.537 | 0.733 | 0.626 | 0.666 | 1.2 | 1.19 | 0.987 | 1.14 | 0.285 | 0.26 | 0.264 | 0.276 | 0.265 | 1.11
15 | NCI-H2228 | 0.432 | 0.591 | 0.457 | 0.382 | 0.288 | 0.354 | 0.327 | 0.384 | 0.948 | 1.46 | 0.909 | 0.759 | 0.751 | 0.399
16 | NCI-H2347 | 0.318 | 0.372 | 0.309 | 0.285 | 0.666 | 0.635 | 0.701 | 0.542 | 0.945 | 0.908 | 0.976 | 0.996 | 0.915 | 0.67
17 | NCI-H2405 | 0.229 | 0.205 | 0.183 | 0.193 | 0.834 | 0.769 | 0.757 | 0.671 | 0.836 | 1.02 | 0.971 | 1.02 | 0.901 | 0.792
18 | NCI-H3122 | 0.791 | 0.903 | 0.899 | 0.562 | 0.227 | 0.281 | 0.294 | 0.356 | 1.01 | 0.994 | 1.02 | 1.01 | 0.985 | 0.278
19 | PC-3 [JPC-3] |  | 0.905 | 0.993 | 0.903 | 0.991 | 1.04 | 0.912 | 0.994 | 0.448 | 0.46 | 0.445 | 0.431 | 0.429 | 0.988
20 | PC-14 | 0.243 | 0.248 | 0.267 | 0.233 | 0.845 | 0.865 | 0.85 | 0.885 | 0.334 | 0.269 | 0.289 | 0.28 | 0.26 | 0.934
21 | RERF-LC-KJ | 0.743 | 0.759 | 0.748 | 0.518 | 0.832 | 0.752 | 0.781 | 0.795 | 0.837 | 0.824 | 0.749 | 0.829 | 0.84 | 0.736
22 | SK-LU-1 | 0.16 | 0.153 | 0.18 | 0.175 | 0.809 | 0.901 | 0.825 | 0.803 | 0.883 | 0.951 | 0.754 | 0.898 | 0.682 | 0.836
23 | SK-MES-1 | 0.25 | 0.288 | 0.451 | 0.44 | 0.982 | 0.998 | 0.841 | 0.582 | 0.487 | 0.414 | 0.422 | 0.39 | 0.381 | 1.05
24 | SW 1573 | 0.756 | 0.507 | 0.695 | 0.581 | 0.72 | 0.74 | 0.769 | 0.756 | 1.01 | 1.01 | 1.1 | 0.852 | 1.12 | 0.723
25 | UMC-11 | 0.427 | 0.39 | 0.399 | 0.242 | 0.559 | 0.557 | 0.591 | 0.661 | 0.879 | 0.854 | 0.901 | 0.909 | 1.18 | 0.66
